The results in this text go back to PubChem BioAssay AID258 (DTP/NCI, 2004).

SMILES strings stand for the structures. Values joined by “and” are separate entries in the source; they are usually repeats but may differ in a detail not shown here. Equal values may be shown once. Inconclusive results and toxic doses are left out.

The test relates to CD2F1 mice, L1210 leukemia sc, survival T/C. In words: NCI In Vivo Anticancer Drug Screen. Data for tumor model L1210 Leukemia (subcutaneous) in CD2F1 (CDF1) mice. Particulars: endpoint: median survival time, higher = longer survival. A digest of the protocol:
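Transplantable tumor-bearing mice were treated with compound; survival or tumor size measured and expressed as treated-group value (T) divided by vehicle-treated control value (C).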

With `O=NN(CCCl)C(=O)NC1CCCCC1`, the T/C reads like this: (dose: 0.5 mg/kg/injection, schedule: Q01DX009 (ip), vehicle: saline + alcohol) 98 % of control; (dose: 0.5 mg/kg/injection, schedule: Q01DX009 (sc), vehicle: saline + alcohol) 101 % of control and 106 % of control; (dose: 1.0 mg/kg/injection, schedule: Q01DX009 (ip), vehicle: saline + alcohol) 101 % of control; (dose: 1.0 mg/kg/injection, schedule: Q01DX009 (sc), vehicle: saline + alcohol) 105 % of control and 114 % of control; (dose: 2.0 mg/kg/injection, schedule: Q01DX009 (sc), vehicle: saline + alcohol) 119 % of control; (dose: 3.0 mg/kg/injection, schedule: Q01DX Z (iv), vehicle: carboxymethylcellulose (CMC)) 105 % of control and 112 % of control. Also, the T/C reads like this: (dose: 3.0 mg/kg/injection, schedule: Q01DX Z (oral), vehicle: carboxymethylcellulose (CMC)) 162 % of control; (dose: 3.0 mg/kg/injection, schedule: Q01DX Z (sc), vehicle: carboxymethylcellulose (CMC)) 118 % of control; (dose: 4.0 mg/kg/injection, schedule: Q01DX009 (ip), vehicle: saline + alcohol) 178 % of control and 186 % of control; (dose: 5.0 mg/kg/injection, schedule: Q01DX Z (ip), vehicle: carboxymethylcellulose (CMC)) 177 % of control and 181 % of control; (dose: 5.0 mg/kg/injection, schedule: Q01DX Z (iv), vehicle: carboxymethylcellulose (CMC)) 294 % of control; (dose: 5.0 mg/kg/injection, schedule: Q01DX Z (oral), vehicle: carboxymethylcellulose (CMC)) 493 % of control. Further, the T/C (dose: 5.0 mg/kg/injection, schedule: Q01DX Z (sc), vehicle: carboxymethylcellulose (CMC)) is 112 % of control and 155 % of control and 287 % of control; the T/C (dose: 5.36 mg/kg/injection, schedule: Q01DX009 (sc), vehicle: saline + alcohol) was 323 % of control; the T/C (dose: 8.0 mg/kg/injection, schedule: Q01DX009 (ip), vehicle: saline + alcohol) is 234 % of control and 261 % of control; the T/C (dose: 8.4 mg/kg/injection, schedule: Q01DX Z (ip), vehicle: carboxymethylcellulose (CMC)) was 381 % of control and 383 % of control; the T/C (dose: 8.4 mg/kg/injection, schedule: Q01DX Z (iv), vehicle: carboxymethylcellulose (CMC)) is 225 % of control and 261 % of control; the T/C (dose: 8.4 mg/kg/injection, schedule: Q01DX Z (oral), vehicle: carboxymethylcellulose (CMC)) was 412 % of control. Further, the T/C runs as follows: (dose: 8.4 mg/kg/injection, schedule: Q01DX Z (sc), vehicle: carboxymethylcellulose (CMC)) 106 % of control and 237 % of control and 300 % of control; (dose: 10.7 mg/kg/injection, schedule: Q01DX009 (ip), vehicle: saline + alcohol) 337 % of control; (dose: 10.7 mg/kg/injection, schedule: Q01DX009 (sc), vehicle: saline + alcohol) 378 % of control; (dose: 12.0 mg/kg/injection, schedule: Q01DX009 (sc), vehicle: saline + alcohol) 325 % of control; (dose: 14.0 mg/kg/injection, schedule: Q01DX Z (ip), vehicle: carboxymethylcellulose (CMC)) 255 % of control and 387 % of control; (dose: 14.0 mg/kg/injection, schedule: Q01DX Z (iv), vehicle: carboxymethylcellulose (CMC)) 183 % of control and 381 % of control. In addition, the T/C reads like this: (dose: 14.0 mg/kg/injection, schedule: Q01DX Z (oral), vehicle: carboxymethylcellulose (CMC)) 255 % of control and 300 % of control; (dose: 14.0 mg/kg/injection, schedule: Q07DX Z (sc), vehicle: carboxymethylcellulose (CMC)) 112 % of control; (dose: 15.0 mg/kg/injection, schedule: Q01DX009 (ip), vehicle: Klucel (hydroxypropylcellulose) (HPC)) 220 % of control; (dose: 16.0 mg/kg/injection, schedule: Q01DX009 (ip), vehicle: saline + alcohol) 306 % of control and 340 % of control; (dose: 16.0 mg/kg/injection, schedule: Q01DX009 (sc), vehicle: saline + alcohol) 271 % of control and 284 % of control and 348 % of control; (dose: 23.0 mg/kg/injection, schedule: Q01DX Z (ip), vehicle: carboxymethylcellulose (CMC)) 177 % of control and 268 % of control. Further, the T/C runs as follows: (dose: 23.0 mg/kg/injection, schedule: Q01DX Z (iv), vehicle: carboxymethylcellulose (CMC)) 155 % of control and 368 % of control; (dose: 23.0 mg/kg/injection, schedule: Q01DX Z (oral), vehicle: carboxymethylcellulose (CMC)) 212 % of control and 222 % of control; (dose: 23.0 mg/kg/injection, schedule: Q01DX Z (sc), vehicle: carboxymethylcellulose (CMC)) 156 % of control and 211 % of control and 268 % of control; (dose: 23.0 mg/kg/injection, schedule: Q07DX Z (sc), vehicle: carboxymethylcellulose (CMC)) 118 % of control; (dose: 24.0 mg/kg/injection, schedule: Q01DX009 (ip), vehicle: saline + alcohol) 184 % of control; (dose: 24.0 mg/kg/injection, schedule: Q01DX009 (sc), vehicle: saline + alcohol) 219 % of control. The T/C by setting is: (dose: 30.0 mg/kg/injection, schedule: Q01DX009 (ip), vehicle: Klucel (hydroxypropylcellulose) (HPC)) 275 % of control; (dose: 32.0 mg/kg/injection, schedule: Q01DX009 (sc), vehicle: saline + alcohol) 173 % of control; (dose: 39.0 mg/kg/injection, schedule: Q01DX Z (oral), vehicle: carboxymethylcellulose (CMC)) 161 % of control; (dose: 39.0 mg/kg/injection, schedule: Q01DX Z (sc), vehicle: carboxymethylcellulose (CMC)) 312 % of control; (dose: 64.0 mg/kg/injection, schedule: Q01DX009 (ip), vehicle: saline + alcohol) 95 % of control; (dose: 64.0 mg/kg/injection, schedule: Q01DX009 (sc), vehicle: saline + alcohol) 107 % of control and 120 % of control. Also, the T/C reads like this: (dose: 65.0 mg/kg/injection, schedule: Q01DX001 (sc), vehicle: carboxymethylcellulose (CMC)) 200 % of control; (dose: 65.0 mg/kg/injection, schedule: Q01DX Z (sc), vehicle: carboxymethylcellulose (CMC)) 237 % of control; (dose: 65.0 mg/kg/injection, schedule: Q07DX Z (sc), vehicle: carboxymethylcellulose (CMC)) 475 % of control; (dose: 108.0 mg/kg/injection, schedule: Q01DX001 (sc), vehicle: carboxymethylcellulose (CMC)) 193 % of control; (dose: 108.0 mg/kg/injection, schedule: Q01DX Z (oral), vehicle: carboxymethylcellulose (CMC)) 122 % of control; (dose: 108.0 mg/kg/injection, schedule: Q07DX Z (sc), vehicle: carboxymethylcellulose (CMC)) 250 % of control. For the same compound, the T/C is 362 % of control (dose: 180.0 mg/kg/injection, schedule: Q01DX001 (sc), vehicle: carboxymethylcellulose (CMC)); 116 % of control (dose: 180.0 mg/kg/injection, schedule: Q01DX Z (oral), vehicle: carboxymethylcellulose (CMC)); 193 % of control (dose: 180.0 mg/kg/injection, schedule: Q07DX Z (sc), vehicle: carboxymethylcellulose (CMC)); 243 % of control (dose: 300.0 mg/kg/injection, schedule: Q01DX001 (sc), vehicle: carboxymethylcellulose (CMC)).
`CC(=O)OCC(=O)[C@@]1(O)CC[C@H]2[C@@H]3CCC4=CC(=O)CC[C@]4(C)[C@@]3(F)[C@@H](O)C[C@@]21C`: the T/C runs as follows: (dose: 300.0 mg/kg/injection, schedule: Q01DX Z (sc), vehicle: methylcellulose (MC)) 121 % of control; (dose: 500.0 mg/kg/injection, schedule: Q01DX Z (sc), vehicle: methylcellulose (MC)) 115 % of control.
As to `CN1c2c(nc(N)[nH]c2=O)NCC1CCNc1ccc(C(=O)NC(CCC(=O)O)C(=O)O)cc1` (stereo unspecified), the T/C is, setting by setting: (dose: 200.0 mg/kg/injection, schedule: Q01DX009 (ip), vehicle: other) 150 % of control; (dose: 200.0 mg/kg/injection, schedule: Q01DX Z (ip), vehicle: other) 155 % of control; (dose: 200.0 mg/kg/injection, schedule: Q04DX003 (ip), vehicle: other) 116 % of control; (dose: 400.0 mg/kg/injection, schedule: Q01DX009 (ip), vehicle: other) 155 % of control; (dose: 400.0 mg/kg/injection, schedule: Q01DX Z (ip), vehicle: other) 155 % of control and 166 % of control; (dose: 400.0 mg/kg/injection, schedule: Q04DX003 (ip), vehicle: other) 111 % of control. Where the note is “dose: 1600.0 mg/kg/injection, schedule: Q04DX003 (ip), vehicle: other”, the T/C is 111 % of control.
Turning to `CCN(CC)CCNc1ccc(CO)c2sc3ccccc3c(=O)c12`, the T/C (dose: 10.0 mg/kg/injection, schedule: Q01DX009 (ip), vehicle: water) was 103 % of control and 110 % of control and 116 % of control; the T/C (dose: 20.0 mg/kg/injection, schedule: Q01DX009 (ip), vehicle: water) was 113 % of control and 115 % of control and 121 % of control; the T/C (dose: 40.0 mg/kg/injection, schedule: Q01DX009 (ip), vehicle: water) was 150 % of control; the T/C (dose: 80.0 mg/kg/injection, schedule: Q01DX009 (ip), vehicle: water) was 100 % of control; the T/C (dose: 160.0 mg/kg/injection, schedule: Q01DX009 (ip), vehicle: water) is 103 % of control and 86 % of control and 94 % of control.
